Data set [1] concerns the target H1N1 neuraminidase (NA), group-1 (Influenza A virus, UniProt P03468). As to the kind of experiment: biochemical.
For data set [2], the system named is A/PR/8/34 (H1N1) virus in MDCK cells. As to the kind of experiment: microbe, parasite or virus in culture. It is filed as cell-based, influenza A virus H1N1. Particulars: read-out: EC50 towards influenza virus H1N1.
Data set [3] deals with A/Wisconsin/67/05 (H3N2) virus in MDCK cells. As to the kind of experiment: microbe, parasite or virus in culture. Particulars: for EC50: read-out: EC50 towards influenza virus H3N2. In kind it is cell-based, influenza A virus H3N2.
A short description of data set [4]: in vitro. The conditions noted are these: dog.
[5] abbreviates: Influenza A virus, H1N1|PR/8, MDCK.

Where two headings read alike, the source gives them in different places.

Chain of H1N1 neuraminidase (NA), group-1 (P03468 36-454 limits assumed): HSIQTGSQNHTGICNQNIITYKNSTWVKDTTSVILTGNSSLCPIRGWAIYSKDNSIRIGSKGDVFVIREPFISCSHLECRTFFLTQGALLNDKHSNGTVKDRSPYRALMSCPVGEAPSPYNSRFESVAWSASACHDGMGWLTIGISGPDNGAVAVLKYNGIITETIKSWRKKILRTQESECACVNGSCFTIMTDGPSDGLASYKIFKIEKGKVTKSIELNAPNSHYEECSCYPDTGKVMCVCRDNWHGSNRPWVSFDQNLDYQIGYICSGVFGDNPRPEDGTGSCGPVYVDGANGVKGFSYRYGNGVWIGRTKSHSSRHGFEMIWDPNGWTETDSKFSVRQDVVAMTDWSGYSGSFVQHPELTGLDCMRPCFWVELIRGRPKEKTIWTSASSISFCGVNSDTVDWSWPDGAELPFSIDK

The term IC50 denotes the concentration needed to halve the response being measured. Turning to `CCC(CC)O[C@@H]1C=C(C(=O)O)C[C@H](NCc2ccc(N(C)CC)cc2)[C@H]1NC(C)=O` [6o, (3R,4R,5S)-4-acetamido-5-((4-(ethyl(methyl)amino)benzyl)amino)-3-(pentan-3-yloxy)cyclohex-1-ene-1-carboxylic acid], in data set [1], 360 ± 18 nM corresponded to half-maximal inhibition (IC50).

In the case of `CCC(CC)O[C@@H]1C=C(C(=O)O)C[C@H](NCc2ccc(N3CC4(CN(C(=O)OC(C)(C)C)C4)C3)cc2)[C@H]1NC(C)=O` [6d, (3R,4R,5S)-4-acetamido-5-((4–(6-(tert-butoxycarbonyl)-2,6-diazaspiro[3.3]heptan-2-yl)benzyl)amino)-3-(pentan-3-yloxy)cyclohex-1-ene-1-carboxylic acid], the half-inhibitory concentration (IC50) in data set [1] was found to be 3100 ± 240 nM.

In the case of `CCC(CC)O[C@@H]1C=C(C(=O)O)C[C@H](NCc2ccc(N3CCC4(CCN(C(=O)OC(C)(C)C)C4)C3)cc2)[C@H]1NC(C)=O` (stereo partly drawn) [6b, (3R,4R,5S)-4-acetamido-5-((4–(7-(tert-butoxycarbonyl)-2,7-diazaspiro[4.4]nonan-2-yl)benzyl)amino)-3-(pentan-3-yloxy)cyclohex-1-ene-1-carboxylic acid], the IC50 in data set [1] came to 400 ± 33 nM. This IC50 lies about 7.8-fold lower than the previous one.

The term EC50 denotes the concentration needed to bring the measured effect to its halfway point. Take `CCC(CC)O[C@@H]1C=C(C(=O)O)C[C@H](NCc2ccc(N3CC4CC4C3)cc2)[C@H]1NC(C)=O` (stereo partly drawn) [6g, (3R,4R,5S)-5-((4–(3-azabicyclo[3.1.0]hexan-3-yl)benzyl)amino)-4-acetamido-3-(pentan-3-yloxy)cyclohex-1-ene-1-carboxylic acid]: the IC50 in data set [1] came to 190 ± 9.6 nM. The EC50 in data set [2] (setting [5]) came to 30 ± 30 nM; in data set [3] (Influenza A virus, H3N2, MDCK), 160 ± 80 nM. The “fold activity enhancement over zanamivir (ZA) against H3N2 virus” value in data set [3] is on record as roughly 2 fold. The compound also came in with a CC50 in data set [4] greater than 250000 nM.

In the case of `CCC(CC)O[C@@H]1C=C(C(=O)O)C[C@H](NCc2ccc(N3CCC4(CC3)OCCO4)cc2)[C@H]1NC(C)=O` [6e, (3R,4R,5S)-5-((4–(1,4-dioxa-8-azaspiro[4.5]decan-8-yl)benzyl)amino)-4-acetamido-3-(pentan-3-yloxy)cyclohex-1-ene-1-carboxylic acid], the IC50 in data set [1] stood at 1990 ± 190 nM.

Turning to `CCC(CC)O[C@@H]1C=C(C(=O)O)C[C@H](N)[C@H]1NC(C)=O` [OSC, oseltamivir carboxylate, reference compound], the EC50 worked out at […] in data set [2] and 360 ± 160 nM in data set [3]. In data set [4], this compound came in with a CC50 greater than 250000 nM.

In data set [1], `CCC(CC)O[C@@H]1C=C(C(=O)O)C[C@H](NCc2ccc(N3CC4CCCC4C3)cc2)[C@H]1NC(C)=O` (stereo partly drawn) [6h, (3R,4R,5S)-4-acetamido-5-((4-(hexahydrocyclopenta[c]pyrrol-2(1H)-yl)benzyl)amino)-3-(pentan-3-yloxy)cyclohex-1-ene-1-carboxylic acid] displayed an IC50 of 300 ± 1.6 nM.

Compound `CCC(CC)O[C@@H]1C=C(C(=O)O)C[C@H](NCc2ccc(N3CC4C(C3)C4(C)C)cc2)[C@H]1NC(C)=O` (stereo partly drawn) [6f, (3R,4R,5S)-4-acetamido-5-((4–(6,6-dimethyl-3-azabicyclo[3.1.0]hexan-3-yl)benzyl)amino)-3-(pentan-3-yloxy)cyclohex-1-ene-1-carboxylic acid] yielded an IC50 in data set [1] of 430 ± 36 nM. This IC50 and that of the compound before are within 1.5-fold of each other.

For the compound `CCC(CC)O[C@@H]1C=C(C(=O)O)C[C@H](NCc2ccc(-c3cnc(Cl)nc3)cc2)[C@H]1NC(C)=O` [3d, (3R,4R,5S)-4-acetamido-5-((4–(2-chloropyrimidin-5-yl)benzyl)amino)-3-(pentan-3-yloxy)cyclohex-1-ene-1-carboxylic acid], in data set [1], the half-maximal inhibitory concentration (IC50) was 4340 ± 360 nM.

For `CCC(CC)O[C@@H]1C=C(C(=O)O)C[C@H](NCc2ccc(N3CCC4(CC3)CN(C(=O)OC(C)(C)C)C4)cc2)[C@H]1NC(C)=O` [6a, (3R,4R,5S)-4-acetamido-5-((4–(2-(tert-butoxycarbonyl)-2,7-diazaspiro[3.5]nonan-7-yl)benzyl)amino)-3-(pentan-3-yloxy)cyclohex-1-ene-1-carboxylic acid], the midpoint of inhibition in data set [1], the IC50, lay at 3940 ± 110 nM.

In data set [1], `CCC(CC)O[C@@H]1C=C(C(=O)O)C[C@H](NCc2ccc(N3CCC[C@H]3C)cc2)[C@H]1NC(C)=O` [6k, (3R,4R,5S)-4-acetamido-5-((4-((R)-2-methylpyrrolidin-1-yl)benzyl)amino)-3-(pentan-3-yloxy)cyclohex-1-ene-1-carboxylic acid] returned a half-inhibitory concentration (IC50) of 84 ± 7.2 nM. In addition, the EC50 in data set [2] (setting [5]) stood at 20 ± 10 nM. For the same compound, in data set [3], the “fold activity enhancement over OSC against H3N2 virus” value is roughly 3 fold and the “fold activity enhancement over zanamivir (ZA) against H3N2 virus” value is reported as roughly 2 fold. Besides, in data set [3] (Influenza A virus, H3N2, MDCK), the EC50 amounted to 120 ± 30 nM. Besides, the CC50 in data set [4] was greater than 250000 nM.

The compound `CCC(CC)O[C@@H]1C=C(C(=O)O)C[C@H](NCc2ccc(N3CC4(CCN(C(=O)OC(C)(C)C)CC4)C3)cc2)[C@H]1NC(C)=O` [6c, (3R,4R,5S)-4-acetamido-5-((4–(7-(tert-butoxycarbonyl)-2,7-diazaspiro[3.5]nonan-2-yl)benzyl)amino)-3-(pentan-3-yloxy)cyclohex-1-ene-1-carboxylic acid] came in with an IC50 in data set [1] of 1400 ± 73 nM.

On to `CC(=O)N[C@H]1[C@H]([C@H](O)[C@H](O)CO)OC(C(=O)O)=C[C@@H]1N=C(N)N` [ZA, zanamivir, reference compound], for which the EC50 in data set [2] (setting [5]) turned out to be […]; in data set [3] (Influenza A virus, H3N2, MDCK), 270 ± 30 nM. Further, the CC50 in data set [4] is greater than 250000 nM.

`CCC(CC)O[C@@H]1C=C(C(=O)O)C[C@H](NCc2ccc(-c3c(C)nc(N)nc3C)cc2)[C@H]1NC(C)=O` [3e, (3R,4R,5S)-4-acetamido-5-((4–(2-amino-4,6-dimethylpyrimidin-5-yl)benzyl)amino)-3-(pentan-3-yloxy)cyclohex-1-ene-1-carboxylic acid] registered a half-inhibitory concentration (IC50) in data set [1] of 8060 ± 480 nM.

On to `CCC(CC)O[C@@H]1C=C(C(=O)O)C[C@H](NCc2ccc(-c3cncnc3)cc2)[C@H]1NC(C)=O` [3c, (3R,4R,5S)-4-acetamido-3-(pentan-3-yloxy)-5-((4-(pyrimidin-5-yl)benzyl)amino)cyclohex-1-ene-1-carboxylic acid], for which the IC50 in data set [1] came out at 12100 ± 1100 nM.

For the compound `CCC(CC)O[C@@H]1C=C(C(=O)O)C[C@H](NCc2ccc(N3CCC3)cc2)[C@H]1NC(C)=O` [6n, (3R,4R,5S)-4-acetamido-5-((4-(azetidin-1-yl)benzyl)amino)-3-(pentan-3-yloxy)cyclohex-1-ene-1-carboxylic acid], it took 140 ± 10 nM to reach half-maximal inhibition in data set [1] (IC50).

`CCC(CC)O[C@@H]1C=C(C(=O)O)C[C@H](NCc2ccc(N3CC4CCCCC4C3)cc2)[C@H]1NC(C)=O` (stereo partly drawn) [6i, (3R,4R,5S)-4-acetamido-5-((4-(octahydro-2H-isoindol-2-yl)benzyl)amino)-3-(pentan-3-yloxy)cyclohex-1-ene-1-carboxylic acid] showed an IC50 in data set [1] of 150 ± 31 nM. Moreover, the EC50 in data set [2] (setting [5]) was found to be 30 ± 30 nM; in data set [3] (Influenza A virus, H3N2, MDCK) it was 320 ± 80 nM. This compound also returned a CC50 in data set [4] greater than 250000 nM.

The values are drawn from article PMC10653643 (Journal of Enzyme Inhibition and Medicinal Chemistry, 2023).
